Laboratory results as given in PMC10044159, “Inhibitory effects of sulfenimides on human and bovine carbonic anhydrase enzymes” (Journal of Enzyme Inhibition and Medicinal Chemistry, 2023).

Key:
[1] = biological target: T1, hCA-II (Homo sapiens, UniProt P00918); assay: CO2 hydratase assay (Wilbur-Anderson); assay type: biochemical
T1 construct: gene CA2
Description: CO2 hydratase assay (Wilbur-Anderson) on hCA-II

[2] = biological target: T2, hCA-I (Homo sapiens, UniProt P00915); assay: CO2 hydratase assay (Wilbur-Anderson); assay type: biochemical
T2 construct: gene CA1
Description: CO2 hydratase assay (Wilbur-Anderson) on hCA-I

T2 sequence (P00915 2-261): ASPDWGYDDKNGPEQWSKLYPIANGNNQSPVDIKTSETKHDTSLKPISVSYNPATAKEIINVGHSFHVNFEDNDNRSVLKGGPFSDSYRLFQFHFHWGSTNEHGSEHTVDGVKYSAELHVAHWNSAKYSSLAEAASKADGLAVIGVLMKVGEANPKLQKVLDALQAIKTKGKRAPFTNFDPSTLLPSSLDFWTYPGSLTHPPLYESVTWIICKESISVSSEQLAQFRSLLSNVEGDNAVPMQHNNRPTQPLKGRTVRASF

| Structure (SMILES) | Ki [1] [µM] | Ki [2] [µM] |
| --- | --- | --- |
| O=C1c2ccccc2C(=O)N1SC1CCCCC1 [1h] | 0.0617 | 0.0503 |
| O=C1c2ccccc2C(=O)N1SCc1ccccc1 [1g] | 0.052 | 0.0408 |
| O=C1c2ccccc2C(=O)N1Sc1ccccc1 [1a] | 0.0515 | 0.0585 |
| O=C1c2ccccc2C(=O)N1Sc1nc2ccccc2[nH]1 [1i] | 0.0546 | 0.0254 |

Other lines, results leading:

| Ki [1] [µM] | Ki [2] [µM] | Structure (SMILES) |
| --- | --- | --- |
| 0.152 | 0.119 | O=C1c2ccccc2C(=O)N1Sc1ccc([N+](=O)[O-])cc1 [1d] |
| 0.044 | 0.023 | O=C1c2ccccc2C(=O)N1Sc1ccc(Br)cc1 [1f] |
| 0.143 | 0.0321 | O=C1c2ccccc2C(=O)N1Sc1ccc(Cl)cc1 [1e] |
| 0.06 | 0.0379 | COc1ccc(SN2C(=O)c3ccccc3C2=O)cc1 [1c] |
